“And” between values parts separate entries of the source, which are not always exact repeats. Identical values can stand only once.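 48-hour exposure; five concentrations; linearly interpolated endpoints. GI50 = concentration required for 50% inhibition of growth. TGI marks complete inhibition of growth.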
Legend:
Assay in all cases: NCI tumour cell line growth inhibition, 48 h
MOLT-4 leukemia = system: MOLT-4 leukemia
NCI-H460 lung = system: NCI-H460 lung
RXF 393 renal = system: RXF 393 renal
KM12 colon = system: KM12 colon
A498 renal = system: A498 renal
HT29 colon = system: HT29 colon
TK-10 renal = system: TK-10 renal
SK-MEL-28 melanoma = system: SK-MEL-28 melanoma
DU-145 prostate = system: DU-145 prostate

| SMILES | TGI (MOLT-4 leukemia) [µM] | TGI (NCI-H460 lung) | TGI (RXF 393 renal) [µM] | TGI (KM12 colon) | TGI (A498 renal) [µM] | TGI (HT29 colon) [µM] | TGI (TK-10 renal) [µM] | GI50 (SK-MEL-28 melanoma) [µM] | TGI (SK-MEL-28 melanoma) | GI50 (NCI-H460 lung) [µM] | GI50 (RXF 393 renal) [µM] | GI50 (KM12 colon) [µM] | GI50 (A498 renal) [µM] | GI50 (HT29 colon) [µM] | GI50 (TK-10 renal) [µM] | GI50 (DU-145 prostate) [µM] | TGI (DU-145 prostate) [µM] | GI50 (MOLT-4 leukemia) [µM] |
| --- | --- | --- | --- | --- | --- | --- | --- | --- | --- | --- | --- | --- | --- | --- | --- | --- | --- | --- |
| COc1nc(NC2OC(COC(C)=O)C(OC(C)=O)C(OC(C)=O)C2OC(C)=O)c2c(OC(C)=O)cc(=O)oc2n1 (stereo unspecified) | > 100 | 34.1 µM | > 100 | > 100 µM | 30.2 | > 100 | > 100 |  |  |  |  |  |  |  |  |  |  |  |
| CCCOc1cc2ccccc2cc1C(=O)Nc1nc(N)c2c(ccc3nccc32)[nH]1 |  | 1.31 µM | 1.16 | 1.53 µM | 0.622 | 0.129 | 2.06 | 1.01 | 2.36 µM | 0.0417 | 0.0426 | 0.0448 | 0.0312 | 0.0341 | 0.458 | 0.0487 | 1.45 |  |
| C=C(C)CCOC(c1ccccc1)(c1ccccc1)c1ccccc1 | > 100 | > 100 µM | 82.8 | > 100 µM |  | 70.6 | > 100 |  | > 100 µM |  |  |  |  |  |  |  |  |  |
| CCc1c(OC(C)=O)c2c(NC3OCC(OC(C)=O)C(OC(C)=O)C3OC(C)=O)nc(SC)nc2oc1=O (stereo unspecified) | > 100 | > 100 µM | > 100 | > 100 µM | > 100 | > 100 | > 100 |  |  |  |  |  |  |  |  |  |  |  |
| O=c1ccc2ccccc2cc1[O-].O=c1ccc2ccccc2cc1[O-].[O]=[U+2]=[O] | 46.2 | > 100 µM | 40 | 69.7 µM | 43.1 | 6.97 | 66.3 | 15.3 | 47.5 µM | 13.6 | 14.4 | 7.15 | 18.6 | 2.51 | 17 |  |  | 4.71 |
| CCCCCCCCCCCCC(O)c1ccc(C#CCCCCCCCCCO)o1 (stereo unspecified) | 26.7 | 75.4 µM | 35.3 | 39.9 µM |  | > 100 | 30.5 | 37.2 | > 100 µM | 28.3 | 17.9 | 20.5 |  | 69.9 | 15.7 | 18.8 | 33 | 4.69 |
| CN(C)CC1CC/C(=C\c2ccc(O)cc2)C1=O (stereo unspecified) | 5.29 | 37.2 µM | 4.8 | 16.6 µM | 21.3 | 11.5 | 9.01 |  | 6.08 µM |  |  |  |  |  |  |  | 29.6 |  |
| O=C(Nc1ccccc1-c1nn(C(=S)Nc2ccccc2)c(=S)n(C(=S)Nc2ccccc2)c1=O)C(F)(F)F | > 77.1 | > 100 µM | > 100 | 52 µM | > 76.6 | > 78.9 | > 96.3 |  | > 100 µM |  |  |  |  |  |  |  |  |  |
| Oc1[nH]c2ccccc2c1N=Nc1nc(-c2ccc(Br)cc2)cs1 | > 100 | 65.8 µM | > 100 | > 100 µM |  | 32.9 | 61.2 |  | 53.9 µM |  |  |  |  |  |  |  | 68 |  |
| CCCCN(CCCC)C(=O)C(=O)C(C(=O)c1ccc(OC)cc1)c1ccc(OC)cc1 (stereo unspecified) | > 100 | > 100 µM | > 100 | > 100 µM |  | > 100 | > 100 |  | > 100 µM |  |  |  |  |  |  |  |  |  |
| c1ccc(NCn2cnc3ccccc32)cc1 | > 100 | > 100 µM | > 100 | > 100 µM | > 100 | > 100 | > 100 |  | > 100 µM |  |  |  |  |  |  |  |  |  |
| CC1=C2C(=C[C@@](C)(CO)[C@@H]2O)C(=O)[C@](C)(O)C12CC2 |  | 0.00701 µM and 0.0108 µM | 0.018 | 0.105 µM and 0.568 µM | 0.0288 | 0.0286 | 0.106 |  | 0.0339 µM and 0.0146 µM |  |  |  |  |  |  |  | 0.0597 | 0.0107 |
| CN(C)CCn1c2c3ccccc3ccc2c2oc(=O)c3ccccc3c21 | 7.25 | 13.4 µM |  | 37 µM |  | 16.6 | 25.1 |  | 18.4 µM |  |  |  |  |  |  |  |  |  |
| COc1ccc(OC)c(N2CC(N)C2=O)c1 (stereo unspecified) | > 100 | > 100 µM | > 100 | > 100 µM | > 100 | > 100 | > 100 |  | > 100 µM |  |  |  |  |  |  |  |  |  |
| O=c1c(-c2ccccc2)c2oc(c1-c1ccccc1)CSCc1cccc(c1)CSC2 | > 100 | > 100 µM | 50.7 | > 100 µM | 69.6 | > 100 | > 100 |  | 87.4 µM |  |  |  |  |  |  |  |  |  |
| CC(=O)O/N=C(/C)c1ccccc1O | > 100 | > 100 µM | > 100 | > 100 µM |  | > 100 | > 100 |  | > 100 µM |  |  |  |  |  |  |  |  |  |
| CC1(C)OC1COc1c2occc2cc2ccc(=O)oc12 (stereo unspecified) | > 100 | > 100 µM | > 100 | > 100 µM | > 100 | > 100 |  |  | > 100 µM |  |  |  |  |  |  |  | > 100 |  |
| CC(=O)NNc1nc(C)c(C(=O)/C=C/c2ccc(NC(C)=O)cc2)s1 | > 100 | > 100 µM | > 100 | > 100 µM | > 100 | > 100 | > 100 |  | > 100 µM |  |  |  |  |  |  |  |  |  |
| C/C(CCn1[nH]c(=O)ccc1=O)=N\NC(=O)C(=O)NN | > 100 | > 100 µM | > 100 | > 100 µM | > 100 | > 100 | > 100 |  | > 100 µM |  |  |  |  |  |  |  |  |  |
